From BindingDB's records for doi:10.1021/jm00185a027 (1981)

Molecular target: Aldo-keto reductase family 1 member B1 (Oryctolagus cuniculus) (UniProt P15122)
Experiment: Binding affinity towards rabbit aldose reductase

Ki: 400 nM
Structure (SMILES): CN(C)S(=O)(=O)c1ccc2oc3ccc(C(=O)O)cc3c(=O)c2c1 [7-Dimethylsulfamoyl-9-oxo-9H-xanthene-2-carboxylic acid]
